Among the data in patent USRE39352E1, “Creatine amidinohydrolase, production thereof and use thereof” (Toyo Boseki Kabushiki Kaisha, priority 1996, dated 2006) are Km values, retold here.

Several values for one entry are separate records, joined by “and”; a condition that tells them apart may be missing. Identical values can stand only once.

In assay [1] the test system is Alcaligenes faecalis TE3581 creatine amidinohydrolase mutant pCRH273M1 (FERM BP-5374), purified from Escherichia coli JM109 (pCRH273M1). Nature of the assay: Km value for creatine, coupling assay using sarcosine oxidase and peroxidase (mutant pCRH273M1). The assay is classed as biochemical. The following applies: coupling assay with sarcosine oxidase and peroxidase, pH 7.6, 37° C.

Assay [2] deals with Alcaligenes faecalis TE3581 (FERM P-14237) creatine amidinohydrolase, wild, SEQ ID NO: 1 (gene SEQ ID NO: 2). Kind of assay: Km value for creatine, coupling assay using sarcosine oxidase and peroxidase (wild enzyme). The following applies: coupling assay with sarcosine oxidase and peroxidase, pH 7.6, 37° C. The assay is classed as biochemical. An excerpt:
While the gene encoding a wild creatine amidinohydrolase which is to be mutated is not particularly limited, in one embodiment of the present invention, it is the creatine amidinohydrolase gene depicted in the Sequence Listing•SEQ ID:No.2, which is derived from Alcaligenes•faecalis TE3581 (FERM P-14237).
In another embodiment of the present invention, a novel creatine amidinohydrolase having a smaller Km value for creatine than a wild creatine amidinohydrolase is produced by mutating the gene encoding the amino acid sequence depicted in the Sequence Listing•SEQ ID No:1. […]
In the Examples, the activity of creatine amidinohydrolase was determined as follows. […]
The above-mentioned reaction mixture (3 ml) is taken with a cuvette (d=1 cm) and preliminarily heated to 37° C. for about 3 minutes. […] Using water as a control, changes in absorbance at 500 nm are recorded for 5 minutes using a spectrophotometer controlled to 37° C. Based on the linear portion of 2-5 minutes thereof, changes in absorbance per minute are determined (ΔOD) test.
The blank test is performed in the same manner as above except that a solution (0.1 ml, 50 mM potassium phosphate buffer, pH 7.5) for diluting the enzyme is used instead of the enzyme solution and changes in absorbance per minute are determined (ΔOD blank).
The enzyme amount is calculated by inserting each measure into the following formula. […]

The test system of assay [3] is creatine amidinohydrolase derived from bacteria belonging to the genus Bacillus. The following applies: Japanese Patent Examined Publication No. 76915/1991; cited from earlier work.
The subject of assay [4] is creatine amidinohydrolase derived from bacteria belonging to the genus Actinobacillus. The following applies: Japanese Patent Examined Publication No. 76915/1991; cited from earlier work.
The test system of assay [5] is Pseudomonas putida creatine amidinohydrolase. The following applies: residual creatine determined with α-naphthol and diacetyl; Archives Biochemistry and Biophysics 177, 508-515 (1976); read-out: apparent Km value for creatine; cited from earlier work.
The subject of assay [6] is Alcaligenes faecalis TE3581 creatine amidinohydrolase mutant pCRH273M2 (FERM BP-5375), purified from Escherichia coli JM109 (pCRH273M2). Kind of assay: Km value for creatine, coupling assay using sarcosine oxidase and peroxidase (mutant pCRH273M2). The assay is classed as biochemical. The following applies: coupling assay with sarcosine oxidase and peroxidase, pH 7.6, 37° C.

Assay [7] has as its system creatine amidinohydrolase derived from bacteria belonging to the genus Micrococcus. The following applies: Japanese Patent Examined Publication No. 76915/1991; cited from earlier work.
Assay [8] relates to Alcaligenes faecalis TE3581 creatine amidinohydrolase mutant pCRH273M3 (FERM BP-5376), purified from Escherichia coli JM109 (pCRH273M3). Nature of the assay: Km value for creatine, coupling assay using sarcosine oxidase and peroxidase (mutant pCRH273M3). The assay is classed as biochemical. The following applies: coupling assay with sarcosine oxidase and peroxidase, pH 7.6, 37° C.

The subject of assay [9] is creatine amidinohydrolase produced by bacteria belonging to the genus Alcaligenes (Japanese Patent Unexamined Publication No. 63363/1994). The following applies: cited from earlier work.
Assay [10] relates to creatine amidinohydrolase derived from bacteria belonging to the genus Corynebacterium. The following applies: Japanese Patent Examined Publication No. 76915/1991; cited from earlier work.

`CN(CC(=O)O)C(=N)N` [creatine]: the Km was ~6.5 mM and 6.5 mM in assay [1]; 15.2 mM in assay [2]; about 20 mM in assay [3]; about 20 mM in assay [4]; 1.33 mM in [5]; ~4.5 mM and 4.5 mM in assay [6]. Also, the Km was about 20 mM in assay [7]; ~9 mM and 9 mM in assay [8]; about 15.2 mM in [9]; about 20 mM in [10].
